Assay results taken from patent US20080300280A1, “Cyanobenzene Compounds for Combating Animal Pests” (priority 2005, published 2008).
Where two headings read alike, the source gives them in different places. One block for each molecule: values may come before it.

Tests used:
[1] = system: Cotton Aphid (aphis gossypii), mixed life stages; assay: Cotton aphid (Aphis gossypii), mixed life stages, leaf-dip test on cotton plants; assay type: in vivo; conditions: 120 h, read-out: mortality of cotton aphid in comparison with untreated controls
Protocol: (§1) The active compounds were formulated in a mixture of 50 vol.-% acetone:50 vol.-% water. A nonionic surfactant (Kinetic®) was included in the solution at a volume of 0.01% v/v.
(§2) In the following tests, the formulated solutions of the active compounds were diluted to an active ingredient concentration of 300 ppm and the diluted solutions were applied in the below mentioned tests.
II.1 Cotton Aphid (aphis gossypii), Mixed Life Stages
Cotton plants at the cotyledon stage were infested prior to treatment by placing a heavily infested leaf from the main aphid colony on top of each cotyledon. The aphids were allowed to transfer overnight and the host leaf was removed. The infested cotyledons were then dipped and agitated in the test solution for 3 seconds and allowed to dry in a fume hood. Test plants were maintained under fluorescent lighting in a 24-hr photoperiod at 25° C. and 20-40% relative humidity. Aphid mortality on the treated plants, relative to mortality on untreated check plants, was determined after 5 days.

[2] = system: Green Peach Aphid (Myzus persicae), mixed life stages; assay: Green peach aphid (Myzus persicae), mixed life stages, leaf-dip test on bell pepper plants; assay type: in vivo; conditions: 120 h, read-out: mortality of green peach aphid in comparison with untreated controls
Protocol: as §1, §2
II.2 Green Peach Aphid (Myzus persicae), Mixed Life Stages
Bell pepper plants at the first true-leaf stage were infested prior to treatment by placing heavily infested leaves from the main aphid colony on top of the treatment plants. The aphids were allowed to transfer overnight to accomplish an infestation of 30-40 aphids per plant and the host leaves were removed. The infested leaves of the test plants were then dipped and agitated in the test solution for 3 seconds and allowed to dry in a fume hood. Test plants were maintained under fluorescent lighting in a 24-hr photoperiod at 25° C. and 20-40% relative humidity. Aphid mortality on the treated plants, relative to mortality on untreated check plants, was determined after 5 days.

Bean Aphid (Aphis fabae) = assay: Bean aphid (Aphis fabae), plant-dip test on nasturtium plants; assay type: in vivo; conditions: 72 h, read-out: mortality of bean aphid in comparison with untreated controls
Protocol: as §1, §2
11.3 Bean Aphid (Aphis fabae)
Nasturtium plants grown in Metro mix in the 1st leaf-pair stage (variety ‘Mixed Jewel’) were infested with approximately 2-30 laboratory-reared aphids by placing infested cut plants on top of the test plants. The cut plants were removed after 24 hr. Each plant was dipped into the test solution to provide complete coverage of the foliage, stem, protruding seed surface and surrounding cube surface and allowed to dry in the fume hood. The treated plants were kept at about 25° C. with continuous fluorescent light. Aphid mortality is determined after 3 days.

[3] = 300 ppm, infested cotton cotyledons dipped 3 seconds, after 5 days
[4] = 300 ppm, infested bell pepper leaves dipped 3 seconds, after 5 days
[5] = 300 ppm, infested nasturtium plants dipped, after 3 days

SMILES: CCN(C(=O)C(F)(F)F)S(=O)(=O)c1cccc(C)c1C#N [Example 6]
mortality at 300 ppm [1, 3]: ≥ 86% | mortality at 300 ppm [2, 4]: ≥ 86% | mortality at 300 ppm (Bean Aphid (Aphis fabae); [5]): ≥ 86%

SMILES: Cc1cccc(S(=O)(=O)NC(=O)C(C)C)c1C#N [Example 14]
mortality at 300 ppm [1, 3]: ≥ 86% | mortality at 300 ppm [2, 4]: ≥ 86% | mortality at 300 ppm (Bean Aphid (Aphis fabae); [5]): ≥ 86%

melting point: 139 to 142 °C
SMILES: CCO/C(=N\S(=O)(=O)c1cccc(C)c1C#N)NC(C)C [Example 29, N-(Isopropylamino-ethoxy-methylene)-2-cyano-3-methyl-benzenesulfonamide]

SMILES: COc1cccc(S(=O)(=O)N(OC)C(C)=O)c1C#N [Example 3]
mortality at 300 ppm [1, 3]: ≥ 86% | mortality at 300 ppm [2, 4]: ≥ 86%

SMILES: CC(=O)OCc1ccn(S(=O)(=O)c2cccc(C)c2C#N)c1 [Example 44]
mortality at 300 ppm [1, 3]: ≥ 86% | mortality at 300 ppm [2, 4]: ≥ 86% | mortality at 300 ppm (Bean Aphid (Aphis fabae); [5]): ≥ 86%

SMILES: Cc1cccc(S(=O)(=O)N(C(=O)C(F)(F)F)C(C)C)c1C#N [Example 12]
mortality at 300 ppm [1, 3]: ≥ 86% | mortality at 300 ppm [2, 4]: ≥ 86% | mortality at 300 ppm (Bean Aphid (Aphis fabae); [5]): ≥ 86%

SMILES: CCN(C(=O)Oc1ccccc1)S(=O)(=O)c1cccc(C)c1C#N [Example 26]
mortality at 300 ppm [1]: ≥ 86% | mortality at 300 ppm (Bean Aphid (Aphis fabae)): ≥ 86%

SMILES: CCN(C(C)=O)S(=O)(=O)c1cccc(OC(F)F)c1C#N [Example 15]
mortality at 300 ppm [1, 3]: ≥ 86% | mortality at 300 ppm [2, 4]: ≥ 86% | mortality at 300 ppm (Bean Aphid (Aphis fabae); [5]): ≥ 86%

SMILES: C#CCN(C(=O)CC)S(=O)(=O)c1cccc(C)c1C#N [Example 8]
mortality at 300 ppm [1, 3]: ≥ 86% | mortality at 300 ppm [2, 4]: ≥ 86% | mortality at 300 ppm (Bean Aphid (Aphis fabae); [5]): ≥ 86%

SMILES: CCC(=O)N(CC)S(=O)(=O)c1cccc(C)c1C#N [Example 5]
mortality at 300 ppm [1, 3]: ≥ 86% | mortality at 300 ppm [2, 4]: ≥ 86% | mortality at 300 ppm (Bean Aphid (Aphis fabae); [5]): ≥ 86%

SMILES: CCOC(=NS(=O)(=O)c1cccc(C)c1C#N)OCC [Example 31]
mortality at 300 ppm [1, 3]: ≥ 86% | mortality at 300 ppm [2, 4]: ≥ 86% | mortality at 300 ppm (Bean Aphid (Aphis fabae); [5]): ≥ 86%

melting point: 99 to 104 °C
SMILES: Cc1cccc(S(=O)(=O)n2cccn2)c1C#N [Example 46, 2-Methyl-6-(pyrazole-1-sulfonyl)-benzonitrile]

SMILES: CCNC(=O)N(CC)S(=O)(=O)c1cccc(C)c1C#N [Example 21]
mortality at 300 ppm [1, 3]: ≥ 86% | mortality at 300 ppm [2, 4]: ≥ 86% | mortality at 300 ppm (Bean Aphid (Aphis fabae); [5]): ≥ 86%

SMILES: Cc1cccc(S(=O)(=O)/N=C/N(C)C)c1C#N [Example 35, 2-Cyano-3-methyl-N-dimethylaminomethylene-benzenesulfonamide]
mortality at 300 ppm [1, 3]: ≥ 86% | mortality at 300 ppm [2, 4]: ≥ 86% | mortality at 300 ppm (Bean Aphid (Aphis fabae); [5]): ≥ 86%

SMILES: CCO/C(=N\S(=O)(=O)c1cccc(C)c1C#N)NC(C)(C)C [Example 30]
mortality at 300 ppm (Bean Aphid (Aphis fabae); [5]): ≥ 86%

SMILES: Cc1cccc(S(=O)(=O)N=S(C(C)C)C(C)C)c1C#N [Example 40]
mortality at 300 ppm [1, 3]: ≥ 86% | mortality at 300 ppm [2, 4]: ≥ 86%

SMILES: C/C(=N\S(=O)(=O)c1cccc(C)c1C#N)C(C)(C)C [Example 37, 2-Cyano-3-methyl-N-(1,2,2-trimethyl-propylidene)-benzenesulfonamide]
mortality at 300 ppm [1, 3]: ≥ 86% | mortality at 300 ppm [2, 4]: ≥ 86% | mortality at 300 ppm (Bean Aphid (Aphis fabae); [5]): ≥ 86%

SMILES: CCN(C(=O)Nc1ccccc1)S(=O)(=O)c1cccc(C)c1C#N [Example 22, N-Ethyl-N-(2-cyano-3-methyl-benzenesulfonyl)-N′-phenyl urea]
mortality at 300 ppm [1, 3]: ≥ 86% | mortality at 300 ppm [2, 4]: ≥ 86%

SMILES: Cc1cccc(S(=O)(=O)n2ccnc2)c1C#N [Example 48, 2-Methyl-6-(imidazole-1-sulfonyl)-benzonitrile]
mortality at 300 ppm [1, 3]: ≥ 86% | mortality at 300 ppm [2, 4]: ≥ 86%

SMILES: C#CCN(C(C)=O)S(=O)(=O)c1cccc(C)c1C#N [Example 7]
mortality at 300 ppm [1, 3]: ≥ 86% | mortality at 300 ppm [2, 4]: ≥ 86% | mortality at 300 ppm (Bean Aphid (Aphis fabae); [5]): ≥ 86%

SMILES: C=CCOC(=O)N(CC)S(=O)(=O)c1cccc(C)c1C#N [Example 27]
mortality at 300 ppm [1]: ≥ 86% | mortality at 300 ppm [2]: ≥ 86% | mortality at 300 ppm (Bean Aphid (Aphis fabae)): ≥ 86%

SMILES: N#Cc1c(OC(F)F)cccc1S(=O)(=O)N=S1CCCC1 [Example 39]
mortality at 300 ppm [1, 3]: ≥ 86% | mortality at 300 ppm [2, 4]: ≥ 86%

SMILES: Cc1cccc(S(=O)(=O)n2ccc(CO)c2)c1C#N [Example 43]
mortality at 300 ppm [1, 3]: ≥ 86% | mortality at 300 ppm [2, 4]: ≥ 86%

SMILES: CC(=O)NS(=O)(=O)c1cccc(C)c1C#N [Example 1]
mortality at 300 ppm [1, 3]: ≥ 86% | mortality at 300 ppm [2, 4]: ≥ 86%

SMILES: CCN(C(C)=O)S(=O)(=O)c1cccc(C)c1C#N [Example 2, N-Acetyl-N-ethyl-2-cyano-3-methyl-benzene-sulfonamide]
mortality at 300 ppm [1, 3]: ≥ 86% | mortality at 300 ppm [2, 4]: ≥ 86% | mortality at 300 ppm (Bean Aphid (Aphis fabae); [5]): ≥ 86%

SMILES: CCOC(=NS(=O)(=O)c1cccc(OC(F)F)c1C#N)OCC [Example 33]
mortality at 300 ppm [1, 3]: ≥ 86% | mortality at 300 ppm [2, 4]: ≥ 86% | mortality at 300 ppm (Bean Aphid (Aphis fabae); [5]): ≥ 86%

SMILES: CO/C(C)=N\S(=O)(=O)c1cccc(C)c1C#N [Example 34, 2-Cyano-N-(1-methoxyethylidene)-3-methyl-benzenesulfonamide]
mortality at 300 ppm [1, 3]: ≥ 86% | mortality at 300 ppm [2, 4]: ≥ 86%

melting point: 142 to 144 °C
SMILES: Cc1cccc(S(=O)(=O)n2cncn2)c1C#N [Example 47, 2-Methyl-6-([1.2.4]-triazole-1-sulfonyl)-benzonitrile]

SMILES: Cc1cccc(S(=O)(=O)NC(=O)Oc2ccccc2)c1C#N [Example 25]
mortality at 300 ppm [1]: ≥ 86% | mortality at 300 ppm (Bean Aphid (Aphis fabae)): ≥ 86%

SMILES: Cc1cccc(S(=O)(=O)NC(=O)OCc2ccccc2)c1C#N [Example 28, N-(Benzyloxycarbonyl)-2-cyano-3-methyl-benzenesulfonamide]
mortality at 300 ppm [1]: ≥ 86% | mortality at 300 ppm [2]: ≥ 86%

SMILES: CCN(C(=O)c1ccccc1)S(=O)(=O)c1cccc(C)c1C#N [Example 17]
mortality at 300 ppm [1, 3]: ≥ 86% | mortality at 300 ppm (Bean Aphid (Aphis fabae); [5]): ≥ 86%

SMILES: CCN(C(=O)NC(C)C)S(=O)(=O)c1cccc(C)c1C#N [Example 23]
mortality at 300 ppm [1, 3]: ≥ 86% | mortality at 300 ppm [2, 4]: ≥ 86% | mortality at 300 ppm (Bean Aphid (Aphis fabae); [5]): ≥ 86%

SMILES: CCC(C)NC(=O)N(CC)S(=O)(=O)c1cccc(C)c1C#N (centres unmarked) [Example 24]
mortality at 300 ppm [1, 3]: ≥ 86%

SMILES: C#CCN(C(=O)C(F)(F)F)S(=O)(=O)c1cccc(C)c1C#N [Example 11]
mortality at 300 ppm [1, 3]: ≥ 86% | mortality at 300 ppm [2, 4]: ≥ 86% | mortality at 300 ppm (Bean Aphid (Aphis fabae); [5]): ≥ 86%

SMILES: CO/C(C)=N\S(=O)(=O)c1cccc(OC(F)F)c1C#N [Example 36]
mortality at 300 ppm [1, 3]: ≥ 86% | mortality at 300 ppm [2, 4]: ≥ 86% | mortality at 300 ppm (Bean Aphid (Aphis fabae); [5]): ≥ 86%

SMILES: C=CC(=O)N(CC)S(=O)(=O)c1cccc(C)c1C#N [Example 10]
mortality at 300 ppm [1, 3]: ≥ 86%

SMILES: Cc1cccc(S(=O)(=O)N=S2CCCC2)c1C#N [Example 38, 2-Cyano-3-methyl-N-(tetrahydro-thiphophen-1-ylidene)benzenesulfonamide]
mortality at 300 ppm [1, 3]: ≥ 86% | mortality at 300 ppm [2, 4]: ≥ 86% | mortality at 300 ppm (Bean Aphid (Aphis fabae); [5]): ≥ 86%

SMILES: Cc1cccc(S(=O)(=O)N2CCCCC2=O)c1C#N [Example 19]
mortality at 300 ppm [1, 3]: ≥ 86%

SMILES: N#Cc1c(OC(F)F)cccc1S(=O)(=O)n1cccc1 [Example 42]
mortality at 300 ppm [1, 3]: ≥ 86% | mortality at 300 ppm [2, 4]: ≥ 86% | mortality at 300 ppm (Bean Aphid (Aphis fabae); [5]): ≥ 86%

SMILES: COC(=NS(=O)(=O)c1cccc(C)c1C#N)OC [Example 32, 2-Cyano-N-dimethoxymethylene-3-methyl-benzenesulfonamide]
mortality at 300 ppm [1, 3]: ≥ 86% | mortality at 300 ppm (Bean Aphid (Aphis fabae); [5]): ≥ 86%

SMILES: Cc1cccc(S(=O)(=O)n2cccc2)c1C#N [Example 41, 2-Methyl-6-(pyrrole-1-sulfonyl)-benzonitrile]
mortality at 300 ppm [1, 3]: ≥ 86% | mortality at 300 ppm [2, 4]: ≥ 86% | mortality at 300 ppm (Bean Aphid (Aphis fabae); [5]): ≥ 86%

SMILES: Cc1cccc(S(=O)(=O)n2ccc(Br)c2)c1C#N [Example 45, 2-Methyl-6-(3-bromo-pyrrole-1-sulfonyl)-benzonitrile]
mortality at 300 ppm [1, 3]: ≥ 86% | mortality at 300 ppm [2, 4]: ≥ 86%

SMILES: CC(=O)N(C(C)C)S(=O)(=O)c1cccc(C)c1C#N [Example 9]
mortality at 300 ppm [1, 3]: ≥ 86% | mortality at 300 ppm [2, 4]: ≥ 86%

SMILES: Cc1cccc(S(=O)(=O)N2CCCC2=O)c1C#N [Example 18, 2-Methyl-6-(2-oxo-pyrrolidine-1-sulfonyl)benzonitrile]
mortality at 300 ppm [1, 3]: ≥ 86% | mortality at 300 ppm (Bean Aphid (Aphis fabae); [5]): ≥ 86%

SMILES: CCC(=O)NS(=O)(=O)c1cccc(C)c1C#N [Example 13]
mortality at 300 ppm [1, 3]: ≥ 86% | mortality at 300 ppm [2, 4]: ≥ 86% | mortality at 300 ppm (Bean Aphid (Aphis fabae); [5]): ≥ 86%

SMILES: CCN(C(C)=O)S(=O)(=O)c1c(F)ccc(OC)c1C#N [Example 16]
mortality at 300 ppm [1, 3]: ≥ 86% | mortality at 300 ppm [2, 4]: ≥ 86%
